Source: paper PMC5438973 (Frontiers in Psychiatry, 2017)
Values joined by “and” are separate entries in the source; they are usually repeats but may differ in a detail not shown here. Equal entries are not always repeated.

What was measured:
h5-HT7 = target: T1, h5-HT7 (Homo sapiens, UniProt P34969); assay: Radioligand binding, human cloned h5-HT7
T1 construct: expressed in transfected cells
Protocol: (§1) Binding affinities at the serotonin receptors were determined by standard radioligand-binding methods using human cloned receptors as reported in the literature ([14], [15]).

Male, NIH Swiss mice [1] = assay: Rotarod performance; type: in vivo, mouse; details: mice, 10 mg/kg
Description: Mice were not pretrained on this task.

α1 = assay: CEREP broad receptor screening panel; type: binding; parameters: dose or concentration left out as unconfirmed; details: CPD 1 (table title), duplicate
Protocol: (§2) Additional selectivity assessment of CPD 1 was performed at CEREP. Methods are available for the multiple assays utilized at http://www.cerep.fr/cerep/users/pages/catalog/assay/catalog.asp. The specific ligand binding to the receptors is defined as the difference between the total binding and the non-specific binding determined in the presence of an excess of unlabeled ligand.

L-Verapamil site = assay: CEREP broad receptor screening panel; type: binding; parameters: dose or concentration left out as unconfirmed; details: CPD 1 (table title), duplicate
Protocol: as §2

h5-HT1E = target: T2, h5-HT1E (Homo sapiens, UniProt P28566); assay: Radioligand binding, human cloned h5-HT1E; details: agonist radioligand, read-out: Affinity, Mean
T2 construct: expressed in transfected cells
Protocol: as §1

D1 = target: T3, D1 (Homo sapiens, UniProt P21728); assay: CEREP broad receptor screening panel; type: binding; details: CPD 1 10 µM (table title), duplicate
T3 construct: CEREP
Protocol: as §2

D4.4 = target: T4, D4.4 (Homo sapiens, UniProt P21917); assay: CEREP broad receptor screening panel; type: binding; details: CPD 1 10 µM (table title), duplicate
T4 construct: CEREP
Protocol: as §2

NE transporter = target: T5, NE transporter (Homo sapiens, UniProt P23975); assay: CEREP broad receptor screening panel; type: binding; details: CPD 1 10 µM (table title), duplicate
T5 construct: CEREP (contract screening)
Protocol: as §2

D5 = target: T6, D5 (Homo sapiens, UniProt P21918); assay: CEREP broad receptor screening panel; type: binding; details: CPD 1 10 µM (table title), duplicate
T6 construct: CEREP
Protocol: as §2

H1 = target: T7, H1 (Homo sapiens, UniProt P35367); assay: CEREP broad receptor screening panel; type: binding; details: CPD 1 10 µM (table title), duplicate
T7 construct: CEREP
Protocol: as §2

M1 = target: T8, M1 (Homo sapiens, UniProt P11229); assay: CEREP broad receptor screening panel; type: binding; details: CPD 1 10 µM (table title), duplicate
T8 construct: CEREP
Protocol: as §2

σ = assay: CEREP broad receptor screening panel; type: binding; details: CPD 1 10 mM (table title), duplicate
Protocol: as §2

D2s = target: T9, D2s (Homo sapiens, UniProt P14416); assay: CEREP broad receptor screening panel; type: binding; details: CPD 1 10 µM (table title), duplicate
T9 construct: CEREP
Protocol: as §2

α2 = assay: CEREP broad receptor screening panel; type: binding; details: CPD 1 10 mM (table title), duplicate
Protocol: as §2

D3 = target: T10, D3 (Homo sapiens, UniProt P35462); assay: CEREP broad receptor screening panel; type: binding; details: CPD 1 10 µM (table title), duplicate
T10 construct: CEREP
Protocol: as §2

β2 = target: T11, β2 (Homo sapiens, UniProt P07550); assay: CEREP broad receptor screening panel; type: binding; details: CPD 1 10 µM (table title), duplicate
T11 construct: CEREP
Protocol: as §2

M3 = target: T12, M3 (Homo sapiens, UniProt P20309); assay: CEREP broad receptor screening panel; type: binding; details: CPD 1 10 µM (table title), duplicate
T12 construct: CEREP (contract screening)
Protocol: as §2

Na+ Channel = assay: CEREP broad receptor screening panel; type: binding; details: CPD 1 10 mM (table title), duplicate
Protocol: as §2

H2 = target: T13, H2 (Homo sapiens, UniProt P25021); assay: CEREP broad receptor screening panel; type: binding; details: CPD 1 10 µM (table title), duplicate
T13 construct: CEREP
Protocol: as §2

Male, NIH Swiss mice [2] = assay: Nestlet-shredding; details: 8/dose group
h5-HT1A = target: T14, h5-HT1A (Homo sapiens, UniProt P08908); assay: Radioligand binding, human cloned h5-HT1A; details: agonist radioligand, read-out: Affinity, Mean
T14 construct: expressed in transfected cells
Protocol: as §1

h5-HT2B = target: T15, h5-HT2B (Homo sapiens, UniProt P41595); assay: Radioligand binding, human cloned h5-HT2B
T15 construct: expressed in transfected cells; host or cells: AV12 cells
Protocol: as §1

h5-HT2C = target: T16, h5-HT2C (Homo sapiens, UniProt P28335); assay: Radioligand binding, human cloned h5-HT2C; details: agonist radioligand, read-out: Affinity, Mean
T16 construct: expressed in transfected cells; host or cells: AV12 cells
Protocol: as §1

T1 sequence (P34969 whole entry): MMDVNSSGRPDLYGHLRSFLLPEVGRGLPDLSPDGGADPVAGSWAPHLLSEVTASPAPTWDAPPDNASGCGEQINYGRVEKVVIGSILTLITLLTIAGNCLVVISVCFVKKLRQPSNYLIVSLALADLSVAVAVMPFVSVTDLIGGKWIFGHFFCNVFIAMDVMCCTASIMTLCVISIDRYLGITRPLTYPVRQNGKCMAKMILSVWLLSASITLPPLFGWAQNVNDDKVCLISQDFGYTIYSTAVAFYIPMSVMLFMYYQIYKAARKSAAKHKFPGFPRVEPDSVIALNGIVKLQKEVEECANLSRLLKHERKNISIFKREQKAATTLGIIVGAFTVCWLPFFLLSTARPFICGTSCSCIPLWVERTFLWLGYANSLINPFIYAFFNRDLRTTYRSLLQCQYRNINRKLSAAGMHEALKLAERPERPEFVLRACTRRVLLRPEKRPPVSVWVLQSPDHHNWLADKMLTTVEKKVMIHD
T15 sequence (P41595 whole entry): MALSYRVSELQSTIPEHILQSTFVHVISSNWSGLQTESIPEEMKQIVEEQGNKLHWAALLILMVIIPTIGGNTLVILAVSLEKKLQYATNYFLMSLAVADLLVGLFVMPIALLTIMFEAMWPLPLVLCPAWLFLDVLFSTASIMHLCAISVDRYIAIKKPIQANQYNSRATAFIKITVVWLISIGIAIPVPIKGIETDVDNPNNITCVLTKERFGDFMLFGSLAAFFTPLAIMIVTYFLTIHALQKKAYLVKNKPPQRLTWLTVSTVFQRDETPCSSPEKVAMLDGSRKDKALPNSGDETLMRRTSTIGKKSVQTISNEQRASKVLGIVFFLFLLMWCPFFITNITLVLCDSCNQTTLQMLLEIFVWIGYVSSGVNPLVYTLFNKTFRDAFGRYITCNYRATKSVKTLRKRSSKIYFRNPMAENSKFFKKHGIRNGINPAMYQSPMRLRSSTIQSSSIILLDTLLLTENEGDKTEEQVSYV
T16 sequence (P28335 33-458): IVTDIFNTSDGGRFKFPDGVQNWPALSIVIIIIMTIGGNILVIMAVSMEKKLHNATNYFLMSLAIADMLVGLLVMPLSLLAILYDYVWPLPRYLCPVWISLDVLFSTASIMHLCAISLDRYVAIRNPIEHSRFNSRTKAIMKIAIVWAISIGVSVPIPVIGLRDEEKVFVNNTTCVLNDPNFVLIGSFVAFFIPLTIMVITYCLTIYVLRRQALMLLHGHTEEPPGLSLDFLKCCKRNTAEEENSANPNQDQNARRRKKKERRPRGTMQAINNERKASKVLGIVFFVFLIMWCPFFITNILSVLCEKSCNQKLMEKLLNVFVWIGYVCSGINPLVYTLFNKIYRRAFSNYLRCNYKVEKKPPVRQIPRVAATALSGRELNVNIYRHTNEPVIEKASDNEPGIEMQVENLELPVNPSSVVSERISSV
T10 sequence (P35462 whole entry): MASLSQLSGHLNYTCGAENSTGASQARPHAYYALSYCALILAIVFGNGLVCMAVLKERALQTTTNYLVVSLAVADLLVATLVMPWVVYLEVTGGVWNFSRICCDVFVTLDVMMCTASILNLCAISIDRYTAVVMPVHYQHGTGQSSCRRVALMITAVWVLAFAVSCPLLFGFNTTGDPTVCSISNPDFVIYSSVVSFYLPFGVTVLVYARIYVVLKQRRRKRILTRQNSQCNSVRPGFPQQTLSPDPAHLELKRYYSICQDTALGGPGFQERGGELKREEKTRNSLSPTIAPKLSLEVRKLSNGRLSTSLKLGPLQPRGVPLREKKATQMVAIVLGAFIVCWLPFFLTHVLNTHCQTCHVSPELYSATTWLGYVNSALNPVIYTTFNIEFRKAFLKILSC
T4 sequence (P21917 whole entry): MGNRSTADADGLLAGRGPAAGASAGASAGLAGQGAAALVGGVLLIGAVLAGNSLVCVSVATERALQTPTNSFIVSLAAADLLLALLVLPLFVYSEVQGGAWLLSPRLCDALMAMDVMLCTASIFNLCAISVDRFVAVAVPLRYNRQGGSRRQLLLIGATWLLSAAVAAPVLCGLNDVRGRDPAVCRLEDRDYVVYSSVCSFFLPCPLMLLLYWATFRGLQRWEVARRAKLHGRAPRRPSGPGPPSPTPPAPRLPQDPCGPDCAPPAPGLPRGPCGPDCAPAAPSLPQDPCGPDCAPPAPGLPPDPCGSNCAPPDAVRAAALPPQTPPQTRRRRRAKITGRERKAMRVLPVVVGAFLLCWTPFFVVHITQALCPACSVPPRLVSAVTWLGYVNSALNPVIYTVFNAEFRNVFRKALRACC
T9 sequence (P14416 1-414 isoform P14416-2): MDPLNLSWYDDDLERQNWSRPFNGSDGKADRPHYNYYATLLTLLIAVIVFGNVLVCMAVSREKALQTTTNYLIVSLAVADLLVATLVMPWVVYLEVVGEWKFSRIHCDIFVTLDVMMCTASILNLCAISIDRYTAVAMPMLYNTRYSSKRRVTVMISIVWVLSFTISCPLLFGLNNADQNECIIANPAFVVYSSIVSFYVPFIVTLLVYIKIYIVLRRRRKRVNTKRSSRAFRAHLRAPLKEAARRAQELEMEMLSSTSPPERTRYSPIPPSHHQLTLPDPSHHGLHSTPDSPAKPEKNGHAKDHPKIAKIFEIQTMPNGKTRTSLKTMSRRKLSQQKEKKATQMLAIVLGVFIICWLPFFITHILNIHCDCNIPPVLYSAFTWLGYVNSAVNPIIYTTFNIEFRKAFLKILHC
T2 sequence (P28566 whole entry): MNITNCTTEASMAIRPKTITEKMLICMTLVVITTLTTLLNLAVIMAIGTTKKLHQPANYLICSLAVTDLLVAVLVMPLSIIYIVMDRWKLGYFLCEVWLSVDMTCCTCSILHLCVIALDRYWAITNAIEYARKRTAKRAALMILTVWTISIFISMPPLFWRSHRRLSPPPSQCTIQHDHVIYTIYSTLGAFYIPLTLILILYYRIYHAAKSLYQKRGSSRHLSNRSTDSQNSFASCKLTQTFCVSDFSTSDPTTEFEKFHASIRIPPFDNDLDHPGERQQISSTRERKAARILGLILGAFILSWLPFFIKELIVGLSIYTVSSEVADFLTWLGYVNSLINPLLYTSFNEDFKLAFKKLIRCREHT
T7 sequence (P35367 whole entry): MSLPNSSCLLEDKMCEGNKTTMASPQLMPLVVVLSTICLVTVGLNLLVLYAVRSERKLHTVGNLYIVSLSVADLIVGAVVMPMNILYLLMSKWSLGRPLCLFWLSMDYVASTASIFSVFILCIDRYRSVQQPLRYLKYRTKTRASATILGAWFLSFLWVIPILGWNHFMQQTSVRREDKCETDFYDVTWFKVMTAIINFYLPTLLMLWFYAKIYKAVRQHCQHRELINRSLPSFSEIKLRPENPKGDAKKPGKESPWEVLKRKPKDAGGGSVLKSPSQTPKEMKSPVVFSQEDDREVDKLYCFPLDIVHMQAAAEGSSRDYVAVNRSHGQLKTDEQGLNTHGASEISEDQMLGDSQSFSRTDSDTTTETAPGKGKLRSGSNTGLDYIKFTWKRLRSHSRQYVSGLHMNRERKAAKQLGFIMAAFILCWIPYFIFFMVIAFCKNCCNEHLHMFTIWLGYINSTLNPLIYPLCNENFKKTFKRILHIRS
T6 sequence (P21918 whole entry): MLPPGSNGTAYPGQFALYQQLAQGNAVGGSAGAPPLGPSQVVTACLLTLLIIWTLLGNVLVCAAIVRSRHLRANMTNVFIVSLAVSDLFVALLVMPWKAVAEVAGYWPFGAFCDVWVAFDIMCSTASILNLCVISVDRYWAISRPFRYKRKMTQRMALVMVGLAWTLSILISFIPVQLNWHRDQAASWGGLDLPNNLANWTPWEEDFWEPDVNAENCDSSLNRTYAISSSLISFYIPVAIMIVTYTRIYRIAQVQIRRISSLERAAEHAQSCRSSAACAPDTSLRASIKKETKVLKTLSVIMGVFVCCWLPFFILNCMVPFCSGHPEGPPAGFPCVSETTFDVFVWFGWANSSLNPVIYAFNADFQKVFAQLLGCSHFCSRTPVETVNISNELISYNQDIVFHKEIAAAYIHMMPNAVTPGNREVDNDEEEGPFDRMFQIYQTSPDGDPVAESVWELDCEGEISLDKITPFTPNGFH
T3 sequence (P21728 whole entry): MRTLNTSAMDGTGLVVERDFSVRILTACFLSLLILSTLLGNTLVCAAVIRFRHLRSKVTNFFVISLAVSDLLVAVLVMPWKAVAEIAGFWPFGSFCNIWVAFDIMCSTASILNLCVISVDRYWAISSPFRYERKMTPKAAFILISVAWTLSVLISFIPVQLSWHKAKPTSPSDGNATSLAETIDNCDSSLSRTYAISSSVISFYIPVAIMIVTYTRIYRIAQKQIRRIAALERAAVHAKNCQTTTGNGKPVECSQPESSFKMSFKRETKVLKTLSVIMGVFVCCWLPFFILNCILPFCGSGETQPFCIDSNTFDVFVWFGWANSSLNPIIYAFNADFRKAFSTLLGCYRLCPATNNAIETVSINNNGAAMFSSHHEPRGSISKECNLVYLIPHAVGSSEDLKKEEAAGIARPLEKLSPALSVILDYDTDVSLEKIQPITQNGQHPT
T8 sequence (P11229 whole entry): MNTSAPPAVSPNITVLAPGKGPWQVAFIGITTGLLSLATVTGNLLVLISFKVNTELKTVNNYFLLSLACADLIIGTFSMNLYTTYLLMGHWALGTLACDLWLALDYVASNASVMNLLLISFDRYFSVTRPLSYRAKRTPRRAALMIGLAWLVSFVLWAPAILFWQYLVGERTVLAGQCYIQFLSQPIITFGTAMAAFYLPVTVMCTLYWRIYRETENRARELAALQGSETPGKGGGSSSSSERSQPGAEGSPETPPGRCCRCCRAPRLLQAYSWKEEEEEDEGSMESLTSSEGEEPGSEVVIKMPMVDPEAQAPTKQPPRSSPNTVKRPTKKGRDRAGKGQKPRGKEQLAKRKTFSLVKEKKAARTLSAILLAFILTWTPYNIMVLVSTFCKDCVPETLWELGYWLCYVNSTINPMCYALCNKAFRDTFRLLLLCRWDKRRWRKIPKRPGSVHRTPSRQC

`C[C@H]1CN(c2ccc(C(F)(F)F)c3ccoc23)CCN1` [CPD 1, (3S)-3-methyl-1-[4-(trifluoromethyl)-7-benzofuranyl]-piperazine] was tested, and the Ki (h5-HT7; agonist radioligand, h5-HT7, read-out: Affinity, Mean) was over 2 µM, the inhibition at 2 µM (h5-HT7; at a concentration of 2 µM) was under 50% and the “Rotarod falls and failures” value (Male, NIH Swiss mice [1]; after 5 days of dosing, 12 mice) was “neither falls nor failures”. For the same compound, the “Rotarod failures (mice failing / tested)” value (Male, NIH Swiss mice [1]; day 1) was 0/12, the “Rotarod falls (mice falling / tested)” value (Male, NIH Swiss mice [1]; day 1) was 2/12 and the “% Inhibition” value (α1) was 82%. The “% Inhibition” value (L-Verapamil site) was 59%, the Ki (h5-HT1E) was 1.03 µM and the inhibition at 10 µM (D1) was 94%. The inhibition at 10 µM (D4.4) was 105%, the inhibition at 10 µM (NE transporter) was 74% and the inhibition at 10 µM (D5) was 69%. For the same compound, the inhibition at 10 µM (H1) was 93%, the inhibition at 10 µM (M1) was 56% and the “% Inhibition” value (σ) was 100%. For the same compound, the inhibition at 10 µM (D2s) was 61%, the “% Inhibition” value (α2) was 70% and the inhibition at 10 µM (D3) was 82%. The inhibition at 10 µM (β2) was 104%, the inhibition at 10 µM (M3) was 76% and the “% Inhibition” value (Na+ Channel) was 101%. The inhibition at 10 µM (H2) was 70%, the “Nestlet-shredding, minimal effective dose” value (Male, NIH Swiss mice [2]) was 3 milligrams per kilogram and the Ki (h5-HT1A) was 0.205 µM. For the same compound, the Ki (h5-HT2B; agonist radioligand, h5-HT2B, read-out: Affinity, Mean) was 0.104 µM, the “selectivity for h5-HT2C over h5-HT2B receptors” value (h5-HT2B; binding affinities) was 50 fold and the Ki (h5-HT2C) was 0.002 µM and 0.00211 µM.
